Measurements: patent publication US8809314B1, “Cephalosporin compound” (Cubist Pharmaceuticals, Inc., priority 2012, dated 2014)
Converted amounts (≈) assume the structure as drawn.

Legend:
Pa44 (WT Pa) = assay: MIC, broth microdilution (Example 3), Table 1; assay type: cell-based; conditions: Pseudomonas aeruginosa, CAMHB
Method: (§1) To prepare for MIC testing, individual colonies were isolated by streaking frozen glycerol material containing Staphylococcus or Pseudomonas spp. onto rich, non-selective, tryptic soy agar containing 5% sheep's blood (TSAB), and incubated at 37° C. for 18-24 hrs.
(§2) On the day of testing, primary cultures were started by scraping off 5-10 colonies from the TSAB plates. The material was suspended in ˜5 mL of cation adjusted Mueller Hinton Broth (CAMHB) in 14 mL culture tubes and incubated at 37° C. with aeration (200 rpm) for ˜2 hrs until the OD600 was ≧0.1.
(§3) Inoculum cultures were prepared by standardizing the primary cultures to OD600=0.1 and then adding 20 μL of the adjusted primary culture per 1 mL CAMHB for Pseudomonas and CAMHB plus 4% NaCl for MRSA so that the final inoculum density was ˜10^5 colony forming units per milliliter. Diluted inoculum cultures were used to inoculate 50 μL per well in 96 well broth microdilution assay plates. 50 μL of CAMHB that contained compound concentrations ranging from 64-0.06 μg/mL in two-fold dilutions was also added to the broth microdilution assay plates for a final volume 100 μL per well, therefore final culture OD600 was approximately 0.001 and the final NaCl concentration for the MRSA strain was 2%.
(§4) Plates were incubated for 18-20 hours at 37° C. with aeration (200 rpm). Following incubation, growth was confirmed visually placing plates over a viewing apparatus (stand with a mirror underneath) and then OD600 was measured using a SpectraMax 340PC384 plate reader (Molecular Devices, Sunnyvale, Calif.). Growth was defined as turbidity that could be detected with the naked eye or achieving minimum OD600 of 0.1. MIC values were defined as the lowest concentration producing no visible turbidity.

Sa399 (MRSA) = assay: MIC, broth microdilution (Example 3), Table 1; assay type: cell-based; conditions: Staphylococcus aureus, CAMHB, final 2% NaCl
Method: as §1, §2, §3, §4

Pa2694 = assay: MIC, broth microdilution (Example 5), Table 3; assay type: cell-based; conditions: Pseudomonas aeruginosa
Method: (§5) II. […] MIC90 values were defined as the concentration required to inhibit growth of 90% of the strains tested. • C. SAR was performed using the following isolates: Sa399 (ATCC43300, MRSA), Sa1721 (NARSA NRS384, MRSA USA 300), Pa44 (ATCC27853), and 4 clinical isolates (Pa2241, Pa2086 (mucoid strain), Pa2694 and Pa2698). • D. The in vitro antibacterial activity of the compound of formula (I) was further evaluated in an expanded MRSA and Pa MIC panel (see Table 4 and FIG. 6).

Sa399 (ATCC43300, MRSA) = assay: MIC, broth microdilution (Example 5), Table 3; assay type: cell-based; conditions: Staphylococcus aureus
Method: as §5

Pa2241 = assay: MIC, broth microdilution (Example 5), Table 3; assay type: cell-based; conditions: Pseudomonas aeruginosa
Method: as §5

Pa2698 = assay: MIC, broth microdilution (Example 5), Table 3; assay type: cell-based; conditions: Pseudomonas aeruginosa
Method: as §5

Pa2086 (mucoid strain) = assay: MIC, broth microdilution (Example 5), Table 3; assay type: cell-based; conditions: Pseudomonas aeruginosa
Method: as §5

Pa44 (ATCC27853) = assay: MIC, broth microdilution (Example 5), Table 3; assay type: cell-based; conditions: Pseudomonas aeruginosa
Method: as §5

[1] = system: Sa1721 (NARSA NRS384, MRSA USA 300); assay: MIC, broth microdilution (Example 5), Table 3; assay type: cell-based; conditions: Staphylococcus aureus
Method: as §5

MRSA (n = 21) = assay: MIC90, expanded MIC panel (Table 4); assay type: cell-based; conditions: Staphylococcus aureus; 21 MRSA strains; read-out: MIC90 MRSA (n = 21)
Method: as §5

MRSA #712 = assay: MIC in MHB by standard CLSI microdilution (Example 4); assay type: cell-based; conditions: Staphylococcus aureus; MRSA #712; read-out: MIC
Excerpt: (§6) II. Methods • A. Animals: Six week-old, specific pathogen free, female CD-1 mice purchased from Charles River Laboratories (Wilmington, Mass.) were used for all studies after acclimation in Cubist animal facility. All animal procedures were approved by the Cubist Institutional Animal Care and Use Committee. • B. Bacteria and In Vitro Susceptibility Testing: MRSA #712, Pseudomonas aeruginosa #2245 and #2545, and Klebsiella pneumoniae #573 are clinical isolates; Pseudomonas aeruginosa #44 is an ATCC strain (ATCC#27853). MIC was determined in MHB by standard CLSI microdilution. Comparator Antibiotics Used in Animal Studies: Vancomycin hydrochloride USP was purchased from Hospira (Lake Forest, Ill.); ceftazidime hydrate from Sigma; Primaxin (imipenem and cilastatin) from Merck; ceftaroline was synthesized at a CRO. • D. Mouse Septicemia: Mice received lethal inocula of bacteria in 6% hog gastric mucin intraperitoneally (IP), followed by two treatment doses of antibiotics via subcutaneous (SC) administration at 1 and 6 hrs post-inoculation. The survival of animals was recorded daily for 7 days. The antibiotic dose calculated to protect 50% of the mice (PD50) was derived based on probit analysis of percentage survival. • E. Mouse Thigh and Lung Infections: Mice were rendered neutropenic by two IP injections of cyclophosphamide 4 days (150 mg/kg) and 1 day (100 mg/kg) before bacterial inoculation. Thigh or lung infection was induced by an intramuscular injection of 0.2 mL or intranasal inoculation of 0.1 mL inoculum preparation from an overnight bacterial culture into left thigh or nares. Tissues from one group of mice receiving no treatment (No Rx) were harvested at 1 hr for determination of baseline of bacterial burden. The remaining mice received two treatment doses of vehicles or antibiotics given SC at 1 and 6 hrs post-inoculation. Tissues from the treated mice were harvested at ˜24 hrs post-inoculation. Tissue bacterial burdens were quantified by serial dilution and spiral plating of homogenates.

[2] = system: ceftazidime-resistant Pseudomonas aeruginosa #2545; assay type: in vivo; conditions: Pa #2545; CD-1 mice, IP inoculum, 2 SC doses at 1 and 6 hrs, 7 day survival
Method: (§7) In vivo efficacy of (I) was evaluated against strains of MRSA, and ceftazidime-resistant Pa and Klebsiella pneumonia (Kpn) in mouse septicemia, thigh and lung infections. Septicemia: CD-1 mice received lethal bacterial inocula IP, followed by 2 doses of antibiotics SC at 1 and 6 hrs post-inoculation. Dose calculated to protect 50% of the mice (PD50) was derived based on probit analysis of percentage survival. Thigh and lung infections: Thighs or lungs of neutropenic mice were inoculated with MRSA or Pa. Two treatment doses were given SC at 1 and 6 hrs post-inoculation. Tissues were harvested at ˜24 hrs post-inoculation and bacterial burdens quantified.
(§8) II. Methods • A. Animals: Six week-old, specific pathogen free, female CD-1 mice purchased from Charles River Laboratories (Wilmington, Mass.) were used for all studies after acclimation in Cubist animal facility. […] MIC was determined in MHB by standard CLSI microdilution. […] The survival of animals was recorded daily for 7 days. The antibiotic dose calculated to protect 50% of the mice (PD50) was derived based on probit analysis of percentage survival. • E. Mouse Thigh and Lung Infections: Mice were rendered neutropenic by two IP injections of cyclophosphamide 4 days (150 mg/kg) and 1 day (100 mg/kg) before bacterial inoculation. […] Tissue bacterial burdens were quantified by serial dilution and spiral plating of homogenates.

[3] = system: ceftazidime-susceptible Pseudomonas aeruginosa #2245; assay: Lung infection in neutropenic mice; assay type: in vivo; conditions: Pa #2245 lung infection, 3-log CFU reduction vs vehicle at 24 h
Method: as §7, §6

[4] = system: ceftazidime-resistant Pseudomonas aeruginosa #2545; assay: Lung infection in neutropenic mice; assay type: in vivo; conditions: Pa #2545 lung infection
Method: as §7, §6

[5] = system: ceftazidime-susceptible Pseudomonas aeruginosa #44 (ATCC#27853); assay: Lung infection in neutropenic mice; assay type: in vivo; conditions: Pa #44 lung infection
Method: as §7, §6

[6] = system: Klebsiella pneumoniae #573; assay: Mouse septicemia (systemic infection), PD50; assay type: in vivo; conditions: Kpn #573; CD-1 mice, IP inoculum, 2 SC doses at 1 and 6 hrs, 7 day survival
Method: as §7, §8

[7] = system: Pseudomonas aeruginosa (n = 100); assay: MIC90, expanded MIC panel (Table 4); assay type: cell-based; conditions: 100 Pa strains
Method: as §5

Pa #2545 = assay: MIC in MHB by standard CLSI microdilution (Example 4); assay type: cell-based; conditions: Pseudomonas aeruginosa
Excerpt: as §6

Pa #44 (ATCC27853) = assay: as above; assay type: cell-based; conditions: Pseudomonas aeruginosa
Excerpt: as §6

Kpn #573 = assay: as above; assay type: cell-based; conditions: Klebsiella pneumoniae
Excerpt: as §6

[8] = system: Pseudomonas aeruginosa #44 (ATCC#27853); assay: Mouse septicemia (systemic infection), PD50; assay type: in vivo; conditions: Pa #44 (ATCC27853), CD-1 mice, IP inoculum, 2 SC doses at 1 and 6 hrs, 7 day survival
Method: as §7
II. Methods • A. Animals: Six week-old, specific pathogen free, female CD-1 mice purchased from Charles River Laboratories (Wilmington, Mass.) were used for all studies after acclimation in Cubist animal facility. All animal procedures were approved by the Cubist Institutional Animal Care and Use Committee. • B. Bacteria and In Vitro Susceptibility Testing: MRSA #712, Pseudomonas aeruginosa #2245 and #2545, and Klebsiella pneumoniae #573 are clinical isolates; Pseudomonas aeruginosa #44 is an ATCC strain (ATCC#27853). MIC was determined in MHB by standard CLSI microdilution. […] The survival of animals was recorded daily for 7 days. The antibiotic dose calculated to protect 50% of the mice (PD50) was derived based on probit analysis of percentage survival. • E. Mouse Thigh and Lung Infections: Mice were rendered neutropenic by two IP injections of cyclophosphamide 4 days (150 mg/kg) and 1 day (100 mg/kg) before bacterial inoculation. […] Tissue bacterial burdens were quantified by serial dilution and spiral plating of homogenates.
III. […] The dose that protected 50% of the mice (PD50) was calculated by probit analysis based on percentage of mice surviving for 7 days post-inoculation. • C. […]

SMILES | MIC (Pa44 (WT Pa)) [µg/mL] | MIC (Sa399 (MRSA)) [µg/mL] | MIC (Pa2694) [µg/mL] | MIC (Sa399 (ATCC43300, MRSA)) [µg/mL] | MIC (Pa2241) [µg/mL] | MIC (Pa2698) [µg/mL] | MIC (Pa2086 (mucoid strain)) [µg/mL] | MIC (Pa44 (ATCC27853)) [µg/mL] | MIC [1] [µg/mL] | further results
CO/N=C(\C(=O)N[C@@H]1C(=O)N2C(C(=O)[O-])=C(C[N+]3(C)CCCC3)CS[C@H]12)c1csc(N)n1 [Cefepime] | ≤ 4 | > 16 | – | – | – | – | – | – | – | –
CO/N=C(\C(=O)N[C@@H]1C(=O)N2C(C(=O)[O-])=C(C[n+]3cccc4c3CCC4)CS[C@H]12)c1csc(N)n1 [Cefpirome] | ≤ 4 | 8 to 16 (≈ 15.5 to 31.1 µM) | – | – | – | – | – | – | – | –
CCO/N=C(\C(=O)N[C@@H]1C(=O)N2C(C(=O)[O-])=C(Sc3nc(-c4cc[n+](C)cc4)cs3)CS[C@H]12)c1nsc(N)n1 [Ceftaroline, ceftaroline] | – | – | > 64 | 0.5 (≈ 0.827 µM) | 16 (≈ 26.5 µM) | > 64 | 16 (≈ 26.5 µM) | 8 (≈ 13.2 µM) | 2 (≈ 3.31 µM) | MIC90 (MRSA (n = 21)): 1 µg/mL (≈ 1.65 µM); MIC (MRSA #712): 1 µg/mL (≈ 1.65 µM)
CC(C)(O/N=C(\C(=O)N[C@@H]1C(=O)N2C(C(=O)[O-])=C(C[n+]3ccccc3)CS[C@H]12)c1csc(N)n1)C(=O)O [Ceftazidime] | ≤ 4 | > 16 | 8 (≈ 14.6 µM) | 64 (≈ 117 µM) | 2 (≈ 3.66 µM) | 8 (≈ 14.6 µM) | 2 (≈ 3.66 µM) | 2 (≈ 3.66 µM) | > 64 | Septicemia PD50 (± SE) [2]: >140.5 mg/kg; ED−3 log [3]: 27.2 mg/kg; Lung (L) ED−2log ([4]; neutropenic mice, 2 SC doses at 1 and 6 hrs, 24 h, vs vehicle): >144.5 (L) mg/kg; impact on the bacterial burden in the lung ([4]; up to 144.5 mg/kg): minimal impact; Lung (L) ED−2log ([5]; 2 SC doses at 1 and 6 hrs, 24 h, vs vehicle): 25.6 (L) mg/kg; ED−3 log ([5]; 3-log CFU reduction vs vehicle at 24 h): 50.4 mg/kg; Septicemia PD50 (± SE) [6]: 50.3 ± 8.4 mg/kg; MIC90 [7]: 8 µg/mL (≈ 14.6 µM); MIC (Pa #2545): 32 to 64 µg/mL (≈ 58.5 to 117 µM); MIC (Pa #44 (ATCC27853)): 1 µg/mL (≈ 1.83 µM); MIC (Kpn #573): 256 µg/mL (≈ 468 µM); Septicemia PD50 (± SE) [8]: 33.9 ± 7.4 mg/kg; Septicemia PD50 (± SE) ([8]; listed as ceftazidime): 33.9 ± 7.4 mg/kg
CO/N=C(\C(=O)N[C@@H]1C(=O)N2C(C(=O)[O-])=C(C[n+]3ccc(CN)cc3)CS[C@H]12)c1csc(N)n1 [Compound 1-1] | ≤ 4 | > 16 | – | – | – | – | – | – | – | –
